The numbers were not newly measured in US11839217B2, “Composition comprising a bioactive molecule” (EUCARYO BEHEER B.V., priority 2016, dated 2023), which cites them from elsewhere.

In the case of `C[C@@H]1C/C=C/C=C/C=C/C=C/[C@H](O[C@@H]2O[C@H](C)[C@@H](O)[C@H](N)[C@@H]2O)C[C@@H]2O[C@](O)(C[C@@H](O)C[C@H]3O[C@@H]3/C=C/C(=O)O1)C[C@H](O)[C@H]2C(=O)O` [natamycin], the solubility in ethanol (ethanol) was 40 to 1200 µg/mL. Besides, the solubility in water (water) was 30 to 50 µg/mL.
